Data published in patent US12649722B2, “Herbicidal cinnoline derivatives” (SYNGENTA CROP PROTECTION AG, priority 2020, dated 2026).

Experiments:
Format in all cases: in vivo
[1] = test system: Amaranthus retoflexus (AMARE); assay: Pre-emergence Test, AMARE; conditions: 1000 g/ha, evaluated after 13 days
[2] = test system: Ipornoea hederacea (IPOHE); assay: Pre-emergence Test, IPOHE; conditions: 1000 g/ha, evaluated after 13 days
[3] = test system: Echinochloa crus-galli (ECHCG); assay: Pre-emergence Test, ECHCG; conditions: 1000 g/ha, evaluated after 13 days
[4] = test system: Setaria faberi (SETFA); assay: Pre-emergence Test, SETFA; conditions: 1000 g/ha, evaluated after 13 days
[5] = test system: ZEAMX; assay: Pre-emergence Test, ZEAMX; conditions: 1000 g/ha, evaluated after 13 days
[6] = test system: ABUTH; assay: Pre-emergence Test, ABUTH; conditions: 1000 g/ha, evaluated after 13 days
[7] = test system: Amaranthus retoflexus (AMARE); assay: Post-emergence Test, AMARE; conditions: sprayed after 8 days cultivation, 1000 g/ha, evaluated after 13 days
Procedure: (§1) Seeds of a variety of test species are sown in standard soil in pots (Amaranthus retoflexus (AMARE), Solarium nigrum (SOLNI), Setaria faberi (SETFA), Lolium perenne (LOLPE), Echinochloa crus-galli (ECHCG), Ipornoea hederacea (IPOHE)). After 8 days cultivation under controlled conditions in a glasshouse (at 24° C./16° C., day/night; 14 hours light; 65% humidity), the plants are sprayed with an aqueous spray solution derived from the formulation of the technical active ingredient in acetone/water (50:50) solution containing 0.5% Tween 20 (polyoxyethylene sorbitan monolaurate, CAS RN 9005-64-5). Compounds are applied at 1000 g/ha unless otherwise stated. The test plants are then grown in a glasshouse under controlled conditions in a glasshouse (at 24° C./16° C., day/night; 14 hours light; 65% humidity) and watered twice daily. After 13 days the test is evaluated for the percentage damage caused to the plant. The biological activities are shown in the following table on a five-point scale (5=81-100%; 4=61-80%; 3=41-60%; 2=21-40%; 1=10-20%; 0=0%; −=not tested).

[8] = test system: Ipornoea hederacea (IPOHE); assay: Post-emergence Test, IPOHE; conditions: sprayed after 8 days cultivation, 1000 g/ha, evaluated after 13 days
Procedure: as §1

[9] = test system: Echinochloa crus-galli (ECHCG); assay: Post-emergence Test, ECHCG; conditions: sprayed after 8 days cultivation, 1000 g/ha, evaluated after 13 days
Procedure: as §1

[10] = test system: Setaria faberi (SETFA); assay: Post-emergence Test, SETFA; conditions: sprayed after 8 days cultivation, 1000 g/ha, evaluated after 13 days
Procedure: as §1

[11] = test system: ZEAMX; assay: Post-emergence Test, ZEAMX; conditions: sprayed after 8 days cultivation, 1000 g/ha, evaluated after 13 days
Procedure: [The procedure below names another target; the source lists this target under the same test.] as §1

[12] = test system: ABUTH; assay: Post-emergence Test, ABUTH; conditions: sprayed after 8 days cultivation, 1000 g/ha, evaluated after 13 days
Procedure: [The procedure below names another target; the source lists this target under the same test.] as §1

SMILES | percentage damage caused to the plant, AMARE [1] | percentage damage caused to the plant, IPOHE [2] | percentage damage caused to the plant, ECHCG [3] | percentage damage caused to the plant, SETFA [4] | percentage damage caused to the plant, ZEAMX [5] | percentage damage caused to the plant, ABUTH [6] | percentage damage caused to the plant, AMARE [7] | percentage damage caused to the plant, IPOHE [8] | percentage damage caused to the plant, ECHCG [9] | percentage damage caused to the plant, SETFA [10] | percentage damage caused to the plant, ZEAMX [11] | percentage damage caused to the plant, ABUTH [12]
CCOC(=O)c1nn(-c2ccc(OC(F)(F)F)cc2)c2cccc(-n3cc(Cl)cn3)c2c1=O [Compound P32, ethyl 5-(4-chloropyrazol-1-yl)-4-oxo-1-[4-(trifluoromethoxy)phenyl] cinnoline-3-carboxylate] | 2 (2=21-40%) | 0 (0=0%) | 4 (4=61-80%) | 4 (4=61-80%) | 2 (2=21-40%) | 2 (2=21-40%) | 1 (1=10-20%) | 1 (1=10-20%) | 3 (3=41-60%) | 3 (3=41-60%) | 1 (1=10-20%) | 1 (1=10-20%)
CCOC(=O)c1nn(-c2ccc(OC(F)(F)F)cc2)c2cccc(N3CCCC3)c2c1=O [Compound P28, ethyl 4-oxo-5-pyrrolidin-1-yl-1-[4-(trifluoromethoxy)phenyl] cinnoline-3-carboxylate] | 0 (0=0%) | 0 (0=0%) | 0 (0=0%) | 0 (0=0%) | 0 (0=0%) | 0 (0=0%) | 0 (0=0%) | 0 (0=0%) | 0 (0=0%) | 0 (0=0%) | 0 (0=0%) | 0 (0=0%)
O=C(O)c1nn(-c2ccc(OC(F)(F)F)cc2)c2cccc(-n3cc(Cl)cn3)c2c1=O [Compound P19] | 0 (0=0%) | 0 (0=0%) | 3 (3=41-60%) | 4 (4=61-80%) | 1 (1=10-20%) | 0 (0=0%) | 2 (2=21-40%) | 2 (2=21-40%) | 3 (3=41-60%) | 4 (4=61-80%) | 2 (2=21-40%) | 1 (1=10-20%)
O=C(O)c1nn(-c2ccc(OC(F)(F)F)cc2)c2cccc(-n3cc(C(F)(F)F)nn3)c2c1=O [Compound P21, 4-oxo-1-[4-(trifluoromethoxy)phenyl]-5-[4-(trifluoromethyl)triazol-1-yl]cinnoline-3-carboxylic acid] | 1 (1=10-20%) | 1 (1=10-20%) | 1 (1=10-20%) | 2 (2=21-40%) | 0 (0=0%) | 0 (0=0%) | 1 (1=10-20%) | 0 (0=0%) | 0 (0=0%) | 2 (2=21-40%) | 1 (1=10-20%) | 1 (1=10-20%)
O=C(O)c1nn(-c2ccc(OC(F)(F)F)cc2)c2cccc(-c3cc(C(F)F)on3)c2c1=O [Compound P13, 5-[5-(difluoromethyl)isoxazol-3-yl]-4-oxo-1-[4-(trifluoromethoxy)phenyl] cinnoline-3-carboxylic acid] | 0 (0=0%) | 0 (0=0%) | 0 (0=0%) | 0 (0=0%) | 0 (0=0%) | 0 (0=0%) | 1 (1=10-20%) | 2 (2=21-40%) | 3 (3=41-60%) | 4 (4=61-80%) | 3 (3=41-60%) | 0 (0=0%)
CCOC(=O)c1nn(-c2ccc(OC(F)(F)F)cc2)c2cccc(C(F)F)c2c1=O [Compound P36, ethyl 5-(difluoromethyl)-4-oxo-1-[4-(trifluoromethoxy)phenyl] cinnoline-3-carboxylate] | 0 (0=0%) | 1 (1=10-20%) | 0 (0=0%) | 2 (2=21-40%) | 0 (0=0%) | 1 (1=10-20%) | 0 (0=0%) | 0 (0=0%) | 0 (0=0%) | 1 (1=10-20%) | 0 (0=0%) | 0 (0=0%)
CCOC(=O)c1nn(-c2ccc(OC(F)(F)F)cc2)c2cccc(N3CCOCC3)c2c1=O [Compound P26, ethyl 5-morpholino-4-oxo-1-[4-(trifluoromethoxy)phenyl] cinnoline-3-carboxylate] | 0 (0=0%) | 0 (0=0%) | 0 (0=0%) | 0 (0=0%) | 0 (0=0%) | 0 (0=0%) | 0 (0=0%) | 0 (0=0%) | 1 (1=10-20%) | 0 (0=0%) | 0 (0=0%) | 0 (0=0%)
C=C(OCC)c1cccc2c1c(=O)c(C(=O)OCC)nn2-c1ccc(OC(F)(F)F)cc1 [Compound P29, ethyl 5-(1-ethoxyvinyl)-4-oxo-1-[4-(trifluoromethoxy)phenyl] cinnoline-3-carboxylate] | 1 (1=10-20%) | 1 (1=10-20%) | 4 (4=61-80%) | 5 (5=81-100%) | 1 (1=10-20%) | 1 (1=10-20%) | 0 (0=0%) | 0 (0=0%) | 4 (4=61-80%) | 3 (3=41-60%) | 2 (2=21-40%) | 1 (1=10-20%)
